Legend:
Format in all cases: in vivo, human
[1] = test system: Subjects Having Insomnia Disorder; assay: Example 2: latency to persistent sleep (LPS), polysomnography; conditions: 6.25 mg
Procedure: As used herein, the term “latency to persistent sleep”, abbreviated as “LPS.” means the minutes from lights off to the first epoch of 20 consecutive epochs (10 minutes) of non-wakefulness.
(§1) In some embodiments, a sleep parameter is determined objectively using polysomnography. Polysomnography is the monitoring of multiple electrophysiological parameters during sleep and generally includes measurement of EEG activity, electro-oculographic activity and electromyographic activity, as well as other measurements.
LPS—latency to persistent sleep: minutes from lights off to the first epoch of 20 consecutive epochs of non-wakefulness.
(§2) The treatment period lasted for 31 days. Subjects were randomized in a double-blind manner and received placebo, a tablet containing 5 mg of lemborexant, a tablet containing 10 mg of lemborexant, or a tablet containing 6.25 mg of zolpidem ER.
(§3) Within 5 minutes of the subject's mean habitual bedtime, study drug was administered and an overnight polysomnogram recording was initiated. At completion of the recording the following morning (Day 2), postural stability and cognitive performance were assessed. On the Day 2 evening, subjects returned to the clinic and a blood sample was collected before administering study drug, and then study drug was administered within 5 minutes of the subject's mean habitual bedtime. Again, a polysomnogram recording was initiated. The next morning (Day 3), postural stability and cognitive performance were assessed. A blood sample was also collected.
(§4) On Day 29, subjects returned to the clinic. Study drug was administered within 5 minutes of the subject's mean habitual bedtime and a polysomnogram recording was conducted. On the following morning (Day 30), postural stability and cognitive performance were assessed. After 1.5 hours of waketime, subjects rated their morning sleepiness level.
(§5) On the evening of Day 30, subjects returned to the clinic. A pre-dose blood sample was collected and study drug was again administered within 5 minutes of the subject's mean habitual bedtime. A polysomnogram recording was initiated. The following morning (Day 31), postural stability and cognitive performance were assessed and a blood sample was obtained. The ISI, FSS, EQ-5D-3L and PGI-Insomnia were administered. Blood and urine samples were collected for routine safety assessment. An electrocardiogram was performed, and vital signs and weight were assessed. The eC-SSRS was then administered to the subject. At 1.5 hours after waketime, subjects rated their morning sleepiness level.
The primary endpoint was to determine the change from baseline for mean latency to persistent sleep on days 29 and 30 of 5 mg or 10 mg lemborexant compared to placebo.

[2] = test system: Subjects Having Insomnia Disorder; assay: Example 2: sleep efficiency (SE), polysomnography; conditions: Zolpidem ER 6.25 mg
Procedure: as §1
SE—sleep efficiency: proportion of time spent asleep per time in bed, calculated as TST/interval from lights off until lights on.
as §2, §3, §4, §5
One key secondary endpoint was to determine the change from baseline for mean sleep efficiency on Days 29 and 30 after administration of 5 mg or 10 mg of lemborexant, compared to placebo.

[3] = test system: Subjects Having Insomnia Disorder; assay: Example 2: Cognitive Performance Assessment Battery; conditions: after the first 2 nights of treatment; 3 of the 4 domains vs placebo and 5 mg, 2 of the 4 domains vs 10 mg lemborexant (FIGS. 11A-11D)
Procedure: FIG. 11A-FIG. 11D show the change from baseline (least squares mean) in the four domains of the Cognitive Performance Assessment Battery at Days 2/3 and Days 30/31 in patients treated with placebo, 6.25 mg of zolpidem, 5 mg of lemborexant, or 10 mg of lemborexant.
Subjects were provided with a sleep diary and trained on how to record entries. After subjects completed the sleep diary on 7 consecutive mornings, and provided that the subject was still eligible to participate in the study, they attended a second clinical meeting between 10 and 17 days before the randomization phase. […]
Within 5 minutes of the subject's mean habitual bedtime, study drug was administered and an overnight polysomnogram recording was initiated. At completion of the recording the following morning (Day 2), postural stability and cognitive performance were assessed. […] The next morning (Day 3), postural stability and cognitive performance were assessed. […]
On Day 29, subjects returned to the clinic. […] On the following morning (Day 30), postural stability and cognitive performance were assessed. […]
On the evening of Day 30, subjects returned to the clinic. […] The following morning (Day 31), postural stability and cognitive performance were assessed and a blood sample was obtained. […] An electrocardiogram was performed, and vital signs and weight were assessed. […]

[4] = test system: Subjects Having Insomnia Disorder; assay: Example 2: treatment-emergent adverse events; conditions: Zolpidem ER 6.25 mg (N = 263)
Procedure: Between 14 and 18 days after completion of the treatment period, subjects returned to the clinic for the end of study visit. The T-BWSQ and eC-SSRS were administered and routine safety assessments were conducted.
A subject who prematurely discontinued taking study drug was to return to the clinic as soon as practicable after discontinuing study drug. If the subject discontinued due to an adverse event, the adverse event must have been followed to resolution or for 2 weeks, whichever came first. Additionally, subjects who discontinued early underwent a urine drug test.

[5] = test system: Subjects Having Insomnia Disorder; assay: Example 2: total sleep time (TST), polysomnography; conditions: Zolpidem ER 6.25 mg
Procedure: as §1
TST—total sleep time: minutes of sleep from sleep onset until terminal awakening.
as §2, §3, §4, §5

How did the “LPS LSM treatment ratio: Active/Placebo” value ([1]; Days 1/2) turn out when `Cc1ccc(-c2nc3ccc(C)cn3c2CC(=O)N(C)C)cc1` [Zolpidem ER, zolpidem, reference compound] was run?
The value was 0.972.

What about the “LPS, Mean” value ([1]; Days 1/2) of the same compound?
Its value is 31.87 min.

What about the “LPS, Median” value ([1]; Days 1/2) of the same compound?
Its value is 27.00 min.

What about the “LPS LSM treatment ratio: Active/Placebo” value ([1]; Days 29/30) of the same compound?
The value was 1.218.

And the “LPS, Mean” value ([1]; Days 29/30)?
The value was 37.11 min.

What about the “LPS, Median” value ([1]; Days 29/30) of the same compound?
Its value is 28.50 min.

What about the “LPS, Mean” value ([1]; Study Baseline) of the same compound?
The value was 44.52 min.

What about the “LPS, Median” value ([1]; Study Baseline) of the same compound?
The value was 31.50 min.

What about the “LPS Change from Study Baseline, Mean” value ([1]; at Days 1/2) of the same compound?
The value was -12.56 min.

What about the “LPS Change from Study Baseline, Median” value ([1]; at Days 1/2) of the same compound?
Its value is -5.63 min.

What about the “LPS Change from Study Baseline, Mean” value ([1]; at Days 29/30) of the same compound?
The value was -7.51 min.

What about the “LPS Change from Study Baseline, Median” value ([1]; at Days 29/30) of the same compound?
Its value is -2.88 min.

And the “Sleep Efficiency, Change from Study Baseline, Mean (SD)” value ([2]; Days 1/2)?
The value was 11.70 (9.725).

What about the “Sleep Efficiency, Change from Study Baseline, Median” value ([2]; Days 1/2) of the same compound?
Its value is 10.83.

And the “Sleep Efficiency, Mean (SD)” value ([2]; Days 1/2)?
Its value is 79.85 (8.461).

And the “Sleep Efficiency, Median” value ([2]; Days 1/2)?
The value was 80.73.

And the “Sleep Efficiency, Change from Study Baseline, Mean (SD)” value ([2]; Days 29/30)?
The value was 9.06 (11.230).

And the “Sleep Efficiency, Change from Study Baseline, Median” value ([2]; Days 29/30)?
The value was 8.39.

And the “Sleep Efficiency, Mean (SD)” value ([2]; Days 29/30)?
Its value is 77.17 (10.185).

What about the “Sleep Efficiency, Median” value ([2]; Days 29/30) of the same compound?
Its value is 78.70.

And the “performance on Cognitive Performance Assessment Battery” value [3]?
The value was “significantly worse performance than placebo”.

What about the Congenital anomaly/birth defect [4] of the same compound?
Its Congenital anomaly/birth defect is 0 n (%).

What about the Deaths [4] of the same compound?
Its Deaths is 0 n (%).

And the Life threatening [4]?
The Life threatening was 0 n (%).

What about the “Other SAEs” value [4] of the same compound?
The value was 4 (1.5) n (%).

And the “Persistent or significant disability or incapacity” value [4]?
Its value is 0 n (%).

And the “Requires inpatient hospitalization or prolongation of existing hospitalization” value [4]?
Its value is 4 (1.5) n (%).

What about the “Serious TEAEs” value [4] of the same compound?
Its value is 4 (1.5) n (%).

And the “Severe TEAEs” value [4]?
The value was 8 (3.0) n (%).

What about the TEAEs [4] of the same compound?
Its TEAEs is 93 (35.4) n (%).

What about the “TEAEs leading to study dose reduced” value [4] of the same compound?
The value was 0 n (%).

And the “TEAEs leading to study drug dose adjustment” value [4]?
Its value is 8 (3.0) n (%).

What about the “TEAEs leading to study drug interrupted” value [4] of the same compound?
The value was 2 (0.8) n (%).

What about the “TEAEs leading to study drug withdrawal” value [4] of the same compound?
Its value is 7 (2.7) n (%).

And the “Treatment-related TEAEs” value [4]?
Its value is 40 (15.2) n (%).

What about the “Total Sleep Time, Change from Study Baseline, Mean (SD)” value ([5]; Days 1/2) of the same compound?
Its value is 55.31 (48.138).

What about the “Total Sleep Time, Change from Study Baseline, Median” value ([5]; Days 1/2) of the same compound?
Its value is 52.00.

And the “Total Sleep Time, Mean (SD)” value ([5]; Days 1/2)?
Its value is 382.42 (41.528).

What about the “Total Sleep Time, Median” value ([5]; Days 1/2) of the same compound?
The value was 387.25.

What about the “Total Sleep Time, Change from Study Baseline, Mean (SD)” value ([5]; Days 29/30) of the same compound?
The value was 43.34 (54.012).

What about the “Total Sleep Time, Change from Study Baseline, Median” value ([5]; Days 29/30) of the same compound?
Its value is 39.63.

And the “Total Sleep Time, Mean (SD)” value ([5]; Days 29/30)?
The value was 370.25 (48.855).

And the “Total Sleep Time, Median” value ([5]; Days 29/30)?
Its value is 377.75.
